Data taken from patent publication US9186321B2 (SUDA LIMITED, priority 2011, dated 2015).
Counter-ions that a name gives are not always drawn.

Test: Overall tolerability in the relative bioavailability study
Format: in vivo, human
Details: doses of 10 mg, 20 mg, 30 mg and single oral dose of 25 mg (1×25 mg tablet); healthy adult subjects under fed conditions
Description: Assessments include evaluation of changes in orthostatic hypotension, oral irritation, vital sign assessments, 12-lead electrocardiogram (ECG), and clinical assessments.
After dosing, the following activities were completed: • Both objective and subjective oral irritation assessments were performed immediately after dosing and at one hour after dose administration. • A fast was maintained until at least four hours after dosing. During the study confinement period, fluid consumption resumed no sooner than one hour after dose administration. […] Day 2 • Blood sample collections were obtained as per the profile. • Supine and standing blood pressure and heart rate was measured at approximately 24 hours after each dose. • All subjects were evaluated for the presence of any adverse events prior to release from the study site. • Prior to release, subjects were evaluated to ensure it was safe for them to be released from the study site. • Subjects were released from the study site at approximately 24 hours after dose administration. […]

CCCc1nn(C)c2c(=O)[nH]c(-c3cc(S(=O)(=O)N4CCN(C)CC4)ccc3OCC)nc12 [sildenafil citrate]
tolerability: well tolerated
